Data from ChEMBL document CHEMBL5465560, “Selectivity Literature for EUbOPEN Chemogenomic Library” (2024).
Blank lines part the entries; values can stand above or below the compound they belong to.

Experiments:
[1] = biological target: T1, Ephrin type-B receptor 2 (Homo sapiens) (UniProt P29323); test: Selectivity interaction (Kinase panel (Z-LYTE Assay)) EUB0001632a EPHB2; conditions: at 10 µM
T1 sequence (whole entry): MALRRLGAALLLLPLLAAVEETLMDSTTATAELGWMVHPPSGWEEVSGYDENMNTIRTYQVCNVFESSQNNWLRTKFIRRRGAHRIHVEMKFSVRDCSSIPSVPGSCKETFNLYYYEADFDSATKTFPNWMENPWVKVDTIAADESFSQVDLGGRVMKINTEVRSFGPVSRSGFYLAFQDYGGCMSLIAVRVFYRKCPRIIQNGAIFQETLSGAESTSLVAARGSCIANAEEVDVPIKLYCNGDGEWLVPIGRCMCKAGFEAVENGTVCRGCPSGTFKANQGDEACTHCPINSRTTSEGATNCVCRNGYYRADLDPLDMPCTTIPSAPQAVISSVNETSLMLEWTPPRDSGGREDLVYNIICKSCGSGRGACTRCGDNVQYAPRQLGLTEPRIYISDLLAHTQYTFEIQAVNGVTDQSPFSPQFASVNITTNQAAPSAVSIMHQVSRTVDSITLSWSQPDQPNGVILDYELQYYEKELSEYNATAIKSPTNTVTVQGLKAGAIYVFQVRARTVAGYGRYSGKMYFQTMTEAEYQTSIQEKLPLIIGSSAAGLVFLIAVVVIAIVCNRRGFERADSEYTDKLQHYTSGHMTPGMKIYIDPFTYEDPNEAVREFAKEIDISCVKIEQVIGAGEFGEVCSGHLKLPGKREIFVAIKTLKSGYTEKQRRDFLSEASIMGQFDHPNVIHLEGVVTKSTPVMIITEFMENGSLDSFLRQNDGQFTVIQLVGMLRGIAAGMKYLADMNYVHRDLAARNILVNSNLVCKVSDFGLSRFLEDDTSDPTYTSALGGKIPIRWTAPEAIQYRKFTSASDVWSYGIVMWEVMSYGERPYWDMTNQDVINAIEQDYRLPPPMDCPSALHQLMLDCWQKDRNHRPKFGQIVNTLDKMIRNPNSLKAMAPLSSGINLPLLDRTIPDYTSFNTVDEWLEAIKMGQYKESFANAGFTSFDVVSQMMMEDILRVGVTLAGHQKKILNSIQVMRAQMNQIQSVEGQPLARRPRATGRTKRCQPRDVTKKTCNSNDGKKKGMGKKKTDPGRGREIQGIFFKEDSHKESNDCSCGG

[2] = biological target: Myosin light chain kinase 2, skeletal/cardiac muscle (Homo sapiens) (UniProt Q9H1R3); test: Selectivity interaction (KinomeScan (DiscoverX)) EUB0000666a MYLK2; conditions: at 10 µM
[3] = biological target: Serine/threonine-protein kinase 24 (Homo sapiens) (UniProt Q9Y6E0); test: Selectivity interaction (KinomeScan (DiscoverX)) EUB0000607a STK24; conditions: at 10 µM
[4] = biological target: Insulin-like growth factor 1 receptor (Homo sapiens, UniProt P08069); test: Selectivity interaction (Kinase panel (Invitrogen)) EUB0000639a IGF1R; conditions: at 200 nM
[5] = biological target: Serine/threonine-protein kinase 26 (Homo sapiens, UniProt Q9P289); test: Selectivity interaction (ProQinase) EUB0000171b STK26
[6] = biological target: T2, Serine/threonine-protein kinase PLK4 (Homo sapiens) (UniProt O00444); test: Selectivity interaction (KinomeScan (DiscoverX)) EUB0001049a PLK4; conditions: at 1 µM
T2 sequence (whole entry): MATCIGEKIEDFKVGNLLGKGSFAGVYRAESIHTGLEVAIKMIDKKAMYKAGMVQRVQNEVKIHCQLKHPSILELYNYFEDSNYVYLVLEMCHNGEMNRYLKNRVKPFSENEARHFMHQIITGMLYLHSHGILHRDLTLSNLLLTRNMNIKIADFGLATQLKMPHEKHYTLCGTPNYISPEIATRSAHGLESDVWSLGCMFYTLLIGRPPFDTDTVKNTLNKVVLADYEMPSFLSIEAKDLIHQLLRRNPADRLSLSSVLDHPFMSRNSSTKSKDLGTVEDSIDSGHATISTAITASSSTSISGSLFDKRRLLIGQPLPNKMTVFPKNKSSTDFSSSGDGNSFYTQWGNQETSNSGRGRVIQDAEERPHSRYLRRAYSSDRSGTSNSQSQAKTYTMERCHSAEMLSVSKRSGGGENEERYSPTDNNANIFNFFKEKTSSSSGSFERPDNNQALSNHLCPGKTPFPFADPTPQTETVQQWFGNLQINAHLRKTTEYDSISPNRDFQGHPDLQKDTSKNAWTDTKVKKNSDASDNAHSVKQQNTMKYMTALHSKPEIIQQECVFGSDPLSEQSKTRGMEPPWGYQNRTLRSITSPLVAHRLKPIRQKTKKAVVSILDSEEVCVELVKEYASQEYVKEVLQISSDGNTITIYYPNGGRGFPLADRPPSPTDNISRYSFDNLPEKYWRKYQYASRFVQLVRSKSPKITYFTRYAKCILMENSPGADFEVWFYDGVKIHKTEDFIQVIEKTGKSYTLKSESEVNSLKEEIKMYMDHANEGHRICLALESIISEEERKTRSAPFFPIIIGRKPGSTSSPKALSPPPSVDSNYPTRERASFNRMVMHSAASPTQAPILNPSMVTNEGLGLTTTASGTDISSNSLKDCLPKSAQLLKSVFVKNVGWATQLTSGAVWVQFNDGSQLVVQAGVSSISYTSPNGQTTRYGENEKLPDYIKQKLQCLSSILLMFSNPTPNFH

[7] = biological target: Serine/threonine-protein kinase PAK 4 (Homo sapiens, UniProt O96013)
Chain of Serine/threonine-protein kinase PAK 4 (O96013 whole entry): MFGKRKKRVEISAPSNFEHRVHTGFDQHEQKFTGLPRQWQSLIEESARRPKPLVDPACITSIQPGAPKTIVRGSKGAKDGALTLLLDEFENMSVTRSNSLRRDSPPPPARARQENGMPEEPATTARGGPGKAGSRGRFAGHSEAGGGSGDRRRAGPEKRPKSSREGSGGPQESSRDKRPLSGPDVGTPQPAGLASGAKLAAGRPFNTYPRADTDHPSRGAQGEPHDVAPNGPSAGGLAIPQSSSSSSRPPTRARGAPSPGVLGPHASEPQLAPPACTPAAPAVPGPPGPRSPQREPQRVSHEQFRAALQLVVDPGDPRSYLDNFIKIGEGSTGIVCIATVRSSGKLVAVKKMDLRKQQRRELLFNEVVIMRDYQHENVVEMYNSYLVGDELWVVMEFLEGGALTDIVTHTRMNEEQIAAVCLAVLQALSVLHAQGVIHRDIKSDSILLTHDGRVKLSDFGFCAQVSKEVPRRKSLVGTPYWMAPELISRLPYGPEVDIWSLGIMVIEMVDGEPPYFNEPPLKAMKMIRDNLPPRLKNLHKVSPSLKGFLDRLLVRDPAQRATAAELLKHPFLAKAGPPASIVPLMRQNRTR

Chain of Serine/threonine-protein kinase 26 (Q9P289 2-416 limits assumed): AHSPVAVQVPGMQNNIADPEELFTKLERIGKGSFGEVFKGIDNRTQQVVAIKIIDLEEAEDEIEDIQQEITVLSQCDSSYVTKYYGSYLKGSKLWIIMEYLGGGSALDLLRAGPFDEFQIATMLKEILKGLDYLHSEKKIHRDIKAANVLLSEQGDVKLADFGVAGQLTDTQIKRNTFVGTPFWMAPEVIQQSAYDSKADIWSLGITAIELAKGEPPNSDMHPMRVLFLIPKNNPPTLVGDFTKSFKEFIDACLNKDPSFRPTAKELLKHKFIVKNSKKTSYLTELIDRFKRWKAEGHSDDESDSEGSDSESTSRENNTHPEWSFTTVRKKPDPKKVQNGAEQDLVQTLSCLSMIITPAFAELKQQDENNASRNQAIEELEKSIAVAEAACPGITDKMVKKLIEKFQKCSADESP
Chain of Serine/threonine-protein kinase 24 (Homo sapiens) (Q9Y6E0 whole entry, looked up): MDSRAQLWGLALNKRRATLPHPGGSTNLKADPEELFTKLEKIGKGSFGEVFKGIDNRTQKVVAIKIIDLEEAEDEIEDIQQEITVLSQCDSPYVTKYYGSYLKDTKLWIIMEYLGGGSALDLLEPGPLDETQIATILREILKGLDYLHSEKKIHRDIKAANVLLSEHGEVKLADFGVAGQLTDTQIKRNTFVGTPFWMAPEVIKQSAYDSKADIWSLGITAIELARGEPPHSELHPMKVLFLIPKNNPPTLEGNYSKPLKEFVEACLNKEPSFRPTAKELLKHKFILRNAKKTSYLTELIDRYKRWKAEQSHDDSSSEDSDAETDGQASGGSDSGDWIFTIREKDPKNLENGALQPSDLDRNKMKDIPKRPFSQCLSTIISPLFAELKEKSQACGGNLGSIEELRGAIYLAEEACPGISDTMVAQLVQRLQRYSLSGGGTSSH
Chain of Myosin light chain kinase 2, skeletal/cardiac muscle (Homo sapiens) (Q9H1R3 whole entry): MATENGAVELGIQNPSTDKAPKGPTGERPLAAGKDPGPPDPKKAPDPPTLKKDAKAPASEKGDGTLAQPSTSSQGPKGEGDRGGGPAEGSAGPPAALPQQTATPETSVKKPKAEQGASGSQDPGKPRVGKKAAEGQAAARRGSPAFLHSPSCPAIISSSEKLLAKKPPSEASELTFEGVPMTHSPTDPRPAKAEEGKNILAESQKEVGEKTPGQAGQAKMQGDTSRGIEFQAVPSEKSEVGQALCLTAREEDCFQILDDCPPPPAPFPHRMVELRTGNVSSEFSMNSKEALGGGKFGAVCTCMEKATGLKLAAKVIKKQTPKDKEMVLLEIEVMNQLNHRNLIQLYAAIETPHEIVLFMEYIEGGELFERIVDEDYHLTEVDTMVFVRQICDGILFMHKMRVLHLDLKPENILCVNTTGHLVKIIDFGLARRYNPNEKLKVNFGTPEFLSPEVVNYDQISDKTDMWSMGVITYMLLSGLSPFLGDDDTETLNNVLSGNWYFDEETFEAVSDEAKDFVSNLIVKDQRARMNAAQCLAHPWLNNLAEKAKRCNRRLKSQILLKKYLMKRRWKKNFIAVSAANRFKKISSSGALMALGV
Chain of Insulin-like growth factor 1 receptor (P08069 31-736 limits assumed): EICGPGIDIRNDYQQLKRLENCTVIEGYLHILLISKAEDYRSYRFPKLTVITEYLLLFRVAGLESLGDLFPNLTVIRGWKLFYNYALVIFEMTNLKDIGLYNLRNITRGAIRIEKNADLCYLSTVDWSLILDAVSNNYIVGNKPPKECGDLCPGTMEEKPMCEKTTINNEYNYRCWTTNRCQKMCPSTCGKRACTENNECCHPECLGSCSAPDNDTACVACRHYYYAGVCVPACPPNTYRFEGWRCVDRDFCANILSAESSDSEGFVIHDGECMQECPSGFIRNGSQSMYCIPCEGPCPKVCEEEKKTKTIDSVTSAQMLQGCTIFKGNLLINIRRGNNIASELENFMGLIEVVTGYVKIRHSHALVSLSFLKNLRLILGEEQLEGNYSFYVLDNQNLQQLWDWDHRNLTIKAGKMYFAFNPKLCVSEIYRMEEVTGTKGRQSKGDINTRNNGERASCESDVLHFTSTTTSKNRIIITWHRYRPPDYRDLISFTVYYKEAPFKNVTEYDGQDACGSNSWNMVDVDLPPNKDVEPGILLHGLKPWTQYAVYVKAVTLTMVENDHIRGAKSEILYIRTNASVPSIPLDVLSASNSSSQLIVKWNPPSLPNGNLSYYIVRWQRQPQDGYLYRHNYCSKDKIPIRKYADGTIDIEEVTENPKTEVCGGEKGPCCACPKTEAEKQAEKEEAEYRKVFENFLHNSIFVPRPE
Chain of Insulin-like growth factor 1 receptor (P08069 741-1367 limits assumed): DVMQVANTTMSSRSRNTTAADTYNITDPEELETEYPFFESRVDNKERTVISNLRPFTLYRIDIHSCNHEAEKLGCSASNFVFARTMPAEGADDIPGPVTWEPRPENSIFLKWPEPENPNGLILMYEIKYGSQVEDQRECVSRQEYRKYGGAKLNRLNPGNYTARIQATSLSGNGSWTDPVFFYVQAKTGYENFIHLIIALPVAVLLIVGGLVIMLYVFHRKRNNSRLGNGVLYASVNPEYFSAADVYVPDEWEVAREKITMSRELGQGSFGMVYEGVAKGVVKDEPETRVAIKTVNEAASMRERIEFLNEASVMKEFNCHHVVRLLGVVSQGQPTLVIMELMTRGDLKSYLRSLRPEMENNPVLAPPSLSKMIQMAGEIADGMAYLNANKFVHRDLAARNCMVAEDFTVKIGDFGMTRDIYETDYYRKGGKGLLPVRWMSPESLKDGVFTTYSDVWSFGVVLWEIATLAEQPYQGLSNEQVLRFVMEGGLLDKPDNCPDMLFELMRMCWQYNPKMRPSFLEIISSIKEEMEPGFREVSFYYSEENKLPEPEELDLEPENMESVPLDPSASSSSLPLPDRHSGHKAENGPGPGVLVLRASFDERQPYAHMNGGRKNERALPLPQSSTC

Compound: Cn1cc(-n2cnc3c(NCc4nc5cc(Cl)c(Cl)cc5[nH]4)nc(N4CCOCC4)nc32)cn1
% of control [1]: 1.86%

Compound: O=C(NOC[C@H](O)CO)c1ccc(F)c(F)c1Nc1ccc(I)cc1F
% of control [2]: 100%

Compound: CNC(=O)Nc1ccc(-c2nc(N3CC4CCC(C3)O4)c3cnn(C4CCC5(CC4)OCCO5)c3n2)cc1
% of control [3]: 96%

Compound: COc1cc(Nc2nc(C)cc(-c3cnn4nc(OC)ccc34)n2)cc(C(F)(F)F)c1
% of control [6]: 49%

Second part, the compound after the results:

% of inhibition [4]: 7.84%
Compound: CC[C@@H]1[C@H](F)C(=O)N[C@@H]1COc1nccc2cc(C(N)=O)c(OC)cc12 [ZIMLOVISERTIB]

% of control ([5]; at 1 µM): 94%
% of control ([5]; at 5 µM): 97%
Compound: C=CC(=O)Nc1cccc(C(=O)Nc2ccc(Nc3cc(-c4[nH]c(SC)nc4C)ccn3)cc2)c1

IC50 [7]: > 10 µM
Compound: CCc1cccc(CC)c1NC(=O)c1nn(C)c2c1CCc1cnc(Nc3ccc(C(=O)NC4CCN(C)CC4)cc3OC(F)(F)F)nc1-2
